The record followed here is a melting point compilation (Tetko et al.; mined from patent text by program, amines drawn as free bases though some values may be those of a salt).

Usually melting point stands for the temperature of the solid-liquid transition.

Consider `COc1cc(C(=O)NS(=O)(=O)c2ccccc2C)ccc1Cn1ccc2ccc(CC(=O)NCC3CCCC3)cc21`, for which the melting point was in the range of 187 to 188 °C. With `COc1ccc(-n2c(CF)nc3ccc([N+](=O)[O-])cc3c2=O)c(C)c1`, the melting point was in the range of 190 to 192 °C.

Compound `Cc1oc(-c2ccccc2)nc1COc1ccc(CN(O)C(N)=O)cc1F` yielded a melting point of 143 to 144 °C. As for `CC(C)Cc1nc2ccc(OC(C)(C)C)cc2c(-c2ccccc2F)c1C#N`, the figure is 127 to 129 °C; as for `CC1Cc2c(-c3ccccc3)[nH]c(-c3ccccc3)c2CC1C` (stereo not given), 133 °C. `O=Cc1ccc(OCc2ccccc2)c(O)c1` came in with a melting point of 118 to 120 °C.

Compound `O=C(O)Cc1cccc(C(=O)c2ccc(OCc3ccc4ccccc4c3)cc2)c1` returned a melting point of 150 to 152 °C.

Regarding `COc1cc(OC)c2sc(-c3ccc([N+](=O)[O-])cc3)nc2c1`, the melting point was 238 to 239 °C. For `O=[N+]([O-])c1ccc(S(=O)(=O)CCO)cc1O` the value was 140 to 142 °C; for `Cc1cc(C#N)cc(CNc2c(NC(C)C(C)(C)C)c(=O)c2=O)c1` (stereo not given), 244 to 247 °C; for `COc1cc(C)ccc1OC(=O)c1ccccc1`, 73 to 75 °C.

In turn, `CC(C)(C)OC(=O)NCC1=C(CC(=O)O)CC=CC1` yielded a melting point of 183 °C.

As to `COc1cccc(COc2ncc(F)c(N/N=C/c3cccs3)n2)c1`, the melting point lay within 136 to 139 °C.

For the compound `S=c1[nH]c2ccc(Cl)cc2c2nc(-c3ccco3)nn12`, the melting point fell in the range of 202 to 207 °C. For `CCOCN(C(=O)N(COCc1ccccc1)c1nc(OCC(F)(F)F)cc(OCC(F)(F)F)n1)c1ccc(C(F)(F)F)cc1` the value was 62 to 65 °C; for `CCN(CC)C(=O)c1ccc(C(F)(F)F)cc1-c1ccc(OC)c(OC)c1`, 108 to 110 °C; for `Cc1c(-c2ccc(OCC3CC3)cc2)nc2n(Cc3c(F)cccc3F)cc(Br)c(=O)n12`, 230 to 231 °C. As for `Cc1nc(-n2ccc(OCc3ccc(C(F)(F)F)cc3)cc2=O)sc1C(=O)NCc1ccccc1`, the figure is 278 to 280 °C; as for `COC(=O)c1cc(C(=O)c2c(C)c(OC)c3ccccn23)ccc1NC(=O)NCC(=O)N(C)C`, 228 °C; as for `CNc1cc(Oc2ccc(NC(=O)Nc3ccc(-c4cccc(C)n4)c(C(F)(F)F)c3)cc2)ncn1`, 106 to 109 °C. For `CCOC(=O)c1c[nH]c2c(OCOC)ccc(OC)c2c1=O` the value was 175 to 177 °C. In turn, `Cc1nc(NCCCOc2cccc(CN3CCCCC3)c2)sc1C` displayed a melting point of 123 to 125 °C.

`FC(F)(F)c1ccc2sc(=Nc3ccccc3)sc2c1` gave a melting point of 122 to 123 °C. On to `CC(=O)Nc1cc(-n2c(=O)cc(C(F)(F)F)n(C)c2=O)c(F)cc1Cl`, for which the melting point was in the range of 257 to 258 °C.

For the compound `OCCCc1cn(-c2ccc(C(F)(F)F)cn2)nc1-c1ccccc1`, the melting point lay in the range of 99 to 100 °C.

For `O=[N+]([O-])c1cccc(C(O)CO)c1` (racemic), the melting point was determined as 45 °C. As for `O=C1O[C@@H](CNC(=S)C(F)F)CN1c1cc(F)c(N2CCS(=O)(=O)CC2)c(F)c1`, the figure is 88 to 90 °C. For `Nc1cc(Oc2ccccc2)ccc1[N+](=O)[O-]` the value was 72 °C; for `Cn1ncc(/C=C/C(=O)Nc2ccc(Cc3nc(C(N)=O)cs3)cc2)c1-c1ccc(F)cc1`, 159 to 160 °C. Consider `CSc1ccc(C=CC(=O)c2ccc(N(C)C)cc2)cc1`, for which the melting point amounted to 150 °C. For `COc1ccc(-c2cc(Cl)on2)cc1` the value was 82 to 83 °C. In turn, `CC(Oc1ccc(F)cc1)C(=O)O` (stereo not given) had a melting point of 113 to 115 °C. For `O=c1ncc(C(F)(F)F)cn1COc1ccc(Cl)cc1` the value was 98 °C; for `Cc1cc(-c2cc(C(F)(F)F)n3cnc(C#N)c3n2)ccc1C(F)(F)F`, 217 °C. As for `CCOC(=O)[C@H]1CCc2ccc(O)cc2O1`, the figure is 77 to 78 °C.
